# Biological target: T1, human NEP (Homo sapiens, UniProt P08473)
# T1 construct: purchased R&D Systems, Minneapolis, Minn; 1182-ZN
# Test: In vitro enzyme inhibition assay at human NEP (fluorogenic peptide substrate)
# Assay type: biochemical
# Details: recombinant human NEP; substrate Mca-D-Arg-Arg-Leu-Dap-(Dnp)-OH 10 μM; 37° C.; values given as ranges; read-out: pKi values at human NEP (converted)
# Protocol: The inhibitory activities of compounds at human and rat neprilysin (EC 3.4.24.11; NEP) and human angiotensin converting enzyme (ACE) were determined using in vitro assays as described below.
# Recombinant human NEP and recombinant human ACE were obtained commercially (R&D Systems, Minneapolis, Minn., catalog numbers 1182-ZN and 929-ZN, respectively). The fluorogenic peptide substrate Mca-D-Arg-Arg-Leu-Dap-(Dnp)-OH (Medeiros et al. (1997) Braz. J. Med. Biol. Res. 30:1157-62; Anaspec, San Jose, Calif.) and Abz-Phe-Arg-Lys(Dnp)-Pro-OH (Araujo et al. (2000) Biochemistry 39:8519-8525; Bachem, Torrance, Calif.) were used in the NEP and ACE assays respectively.
# The assays were performed in 384-well white opaque plates at 37° C. using the fluorogenic peptide substrates at a concentration of 10 μM in Assay Buffer (NEP: 50 mM HEPES, pH 7.5, 100 mM NaCl, 0.01% polyethylene glycol sorbitan monolaurate (Tween-20), 10 μM ZnSO4; ACE: 50 mM HEPES, pH 7.5, 100 mM NaCl, 0.01% Tween-20, 1 μM ZnSO4).
# Test compounds were assayed over the range of concentrations from 10 μM to 20 pM. Test compounds were added to the enzymes and incubated for 30 minute at 37° C. prior to initiating the reaction by the addition of substrate. Reactions were terminated after 20 minutes of incubation at 37° C. by the addition of glacial acetic acid to a final concentration of 3.6% (v/v).
# Plates were read on a fluorometer with excitation and emission wavelengths set to 320 nm and 405 nm, respectively Inhibition constants were obtained by nonlinear regression of the data using the equation (GraphPad Software, Inc., San Diego, Calif.): v=v0/[1+(I/K′)] where v is the reaction rate, v0 is the uninhibited reaction rate, I is the inhibitor concentration and K′ is the apparent inhibition constant.
# Compounds of the invention were tested in this assay and found to have pKi values at human NEP as follows.
# T1 sequence (P08473 whole entry): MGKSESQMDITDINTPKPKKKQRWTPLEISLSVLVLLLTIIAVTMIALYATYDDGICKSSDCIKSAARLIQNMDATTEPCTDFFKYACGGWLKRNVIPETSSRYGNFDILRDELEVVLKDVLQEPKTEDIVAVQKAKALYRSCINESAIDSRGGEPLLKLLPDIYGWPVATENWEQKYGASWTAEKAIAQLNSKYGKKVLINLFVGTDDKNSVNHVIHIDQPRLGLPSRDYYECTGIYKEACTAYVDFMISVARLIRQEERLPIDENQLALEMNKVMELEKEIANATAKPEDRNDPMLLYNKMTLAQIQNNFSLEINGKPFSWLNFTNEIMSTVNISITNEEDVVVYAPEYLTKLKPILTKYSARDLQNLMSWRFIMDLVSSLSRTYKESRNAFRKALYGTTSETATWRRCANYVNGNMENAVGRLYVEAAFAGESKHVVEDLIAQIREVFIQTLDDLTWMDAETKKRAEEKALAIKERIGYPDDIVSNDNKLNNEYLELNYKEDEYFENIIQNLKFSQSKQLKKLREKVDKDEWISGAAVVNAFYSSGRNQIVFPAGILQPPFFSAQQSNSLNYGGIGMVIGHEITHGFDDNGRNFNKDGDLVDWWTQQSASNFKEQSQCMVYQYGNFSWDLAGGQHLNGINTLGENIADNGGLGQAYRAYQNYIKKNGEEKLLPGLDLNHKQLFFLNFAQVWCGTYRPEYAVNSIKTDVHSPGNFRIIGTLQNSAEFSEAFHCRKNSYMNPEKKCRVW
row,SMILES,Ki [nM]
1,"CC(C)CN(C)C(=O)c1cc(C(=O)N[C@H](Cc2ccccc2Cl)[C@@H](O)C(=O)O)n[nH]1 [Example 2-56, (2R,3R)-4-(2-Chloro-phenyl)-2-hydroxy-3-{[5-(isobutyl-methyl-carbamoyl)-1H-pyrazole-3-carbonyl]-amino}-butyric acid]",12.6 to 100
2,"O=C(O)C[C@@H](Cc1ccccc1Cl)NC(=O)c1cc(C(=O)O)n(Cc2ccncc2)n1 [Example 11-11, 5-[(R)-2-Carboxy-1-(2-chloro-benzyl)-ethylcarbamoyl]-2-pyridin-4-ylmethyl-2H-pyrazole-3-carboxylic acid]",12.6 to 100
3,"O=C(N[C@H](Cc1ccccc1Cl)[C@@H](O)C(=O)O)c1cc(-c2ccccc2O)[nH]n1 [Example 2-50, (2R,3R)-4-(2-Chloro-phenyl)-2-hydroxy-3-{[5-(2-hydroxy-phenyl)-1H-pyrazole-3-carbonyl]-amino}-butyric acid]",12.6 to 100
4,"O=C(N[C@H](Cc1ccccc1Cl)[C@@H](O)C(=O)O)c1cc(C(=O)O)n(Cc2cc(F)ccc2Cl)n1 [Example 2-15, 5-[(1R,2R)-2-Carboxy-1-(2-chloro-benzyl)-2-hydroxy-ethylcarbamoyl]-2-(2-chloro-5-fluoro-benzyl)-2H-pyrazole-3-carboxylic acid]",1.26 to 10
5,"O=C(O)C[C@@H](Cc1ccccc1C(F)(F)F)NC(=O)c1cc(C(=O)O)[nH]n1 [Example 12, 5-[(R)-2-Carboxy-1-(2-trifluoromethylbenzyl)-ethylcarbamoyl]-2H-pyrazole-3-carboxylic Acid]",12.6 to 100
6,"O=C(N[C@H](Cc1ccccc1C(F)(F)F)[C@@H](O)C(=O)O)c1cc(C(=O)N2CC[C@@H](O)C2)[nH]n1 [Example 6-10, (2R,3R)-2-Hydroxy-3-{[5-((R)-3-hydroxy-pyrrolidine-1-carbonyl)-1H-pyrazole-3-carbonyl]-amino}-4-(2-trifluoromethyl-phenyl)-butyric acid]",1.26 to 10
7,"CCCCCCn1nc(C(=O)N[C@@H](CC(=O)O)Cc2ccccc2Cl)cc1C(=O)O [Example 11-8, 5-[(R)-2-Carboxy-1-(2-chloro-benzyl)-ethylcarbamoyl]-2-hexyl-2H-pyrazole-3-carboxylic acid]",12.6 to 100
8,"O=C(N[C@H](Cc1ccccc1Cl)[C@@H](O)C(=O)O)c1cc(-c2cnccn2)[nH]n1 [Example 2-51, (2R,3R)-4-(2-Chloro-phenyl)-2-hydroxy-3-[(5-pyrazin-2-yl-1H-pyrazole-3-carbonyl)-amino]-butyric acid]",12.6 to 100
9,"COc1cccc(Cn2nc(C(=O)N[C@H](Cc3ccccc3Cl)[C@@H](O)C(=O)O)cc2C(=O)O)c1 [Example 2-11, 5-[(1R,2R)-2-Carboxy-1-(2-chloro-benzyl)-2-hydroxy-ethylcarbamoyl]-2-(3-methoxy-benzyl)-2H-pyrazole-3-carboxylic acid]",1.26 to 10
10,"O=C(N[C@H](Cc1ccccc1C(F)(F)F)[C@@H](O)C(=O)O)c1cc(C(=O)N2CCC(O)CC2)[nH]n1 [Example 6-8, (2R,3R)-2-Hydroxy-3-{[5-(4-hydroxy-piperidine-1-carbonyl)-1H-pyrazole-3-carbonyl]-amino}-4-(2-trifluoromethyl-phenyl)-butyric acid]",12.6 to 100
11,"O=C(N[C@H](Cc1ccccc1Cl)[C@@H](O)C(=O)O)c1cc(C(=O)O)n(Cc2c(F)ccc(Cl)c2F)n1 [Example 2-14, 5-[(1R,2R)-2-Carboxy-1-(2-chloro-benzyl)-2-hydroxy-ethylcarbamoyl]-2-(3-chloro-2,6-difluoro-benzyl)-2H-pyrazole-3-carboxylic acid]",1.26 to 10
12,"CCOc1ncc(Cn2nc(C(=O)N[C@H](Cc3ccccc3)[C@@H](O)C(=O)O)cc2C2CC2)cn1 [Example 8-24, (2R,3R)-3-{[5-Cyclopropyl-1-(2-ethoxy-pyrimidin-5-ylmethyl)-1H-pyrazole-3-carbonyl]-amino}-2-hydroxy-4-phenyl-butyric acid]",12.6 to 100
13,"O=C(O)Cn1nc(C(=O)N[C@H](Cc2ccccc2Cl)[C@@H](O)C(=O)O)cc1-c1ccc(Cl)cc1Cl [Example 2-74, (2R,3R)-3-{[1-Carboxymethyl-5-(2,4-dichlorophenyl)-1H-pyrazole-3-carbonyl]-amino}-4-(2-chloro-phenyl)-2-hydroxy-butyric acid]",12.6 to 100
14,"Cc1cc(Cn2nc(C(=O)N[C@H](Cc3ccccc3Cl)[C@@H](O)C(=O)O)cc2C(=O)O)no1 [Example 2-61, 5-[(1R,2R)-2-Carboxy-1-(2-chloro-benzyl)-2-hydroxy-ethylcarbamoyl]-2-(5-methyl-isoxazol-3-ylmethyl)-2H-pyrazole-3-carboxylic acid]",1.26 to 10
15,"O=C(N[C@H](Cc1ccccc1)[C@@H](O)C(=O)O)c1cc(C(=O)O)n(Cc2cccnc2)n1 [Example 8-15, 5-((1R,2R)-1-Benzyl-2-carboxy-2-hydroxy-ethylcarbamoyl)-2-pyridin-3-ylmethyl-2H-pyrazole-3-carboxylic acid]",12.6 to 100
16,"COc1c(F)c(F)c(Cn2nc(C(=O)N[C@H](Cc3ccccc3Cl)[C@@H](O)C(=O)O)cc2C(C)=O)c(F)c1F [Example 2-71, (2R,3R)-3-{[5-Acetyl-1-(2,3,5,6-tetrafluoro-4-methoxy-benzyl)-1H-pyrazole-3-carbonyl]-amino}-4-(2-chloro-phenyl)-2-hydroxy-butyric acid]",≤ 1
17,"CCn1nc(C(=O)N[C@H](Cc2ccccc2)[C@@H](O)C(=O)O)cc1C(=O)O [Example 8-12, 5-((1R,2R)-1-Benzyl-2-carboxy-2-hydroxy-ethylcarbamoyl)-2-ethyl-2H-pyrazole-3-carboxylic acid]",12.6 to 100
18,"COc1ccc(Cn2nc(C(=O)N[C@H](Cc3ccccc3)[C@@H](O)C(=O)O)cc2C2CC2)c(F)c1F [Example 8-21, (2R,3R)-3-{[5-Cyclopropyl-1-(2,3-difluoro-4-methoxy-benzyl)-1H-pyrazole-3-carbonyl]-amino}-2-hydroxy-4-phenyl-butyric acid]",1.26 to 10
19,"O=C(N[C@H](Cc1ccccc1Cl)[C@@H](O)C(=O)O)c1cc(C(=O)O)n(Cc2ccc(Cl)c(OC(F)(F)F)c2)n1 [Example 2-13, 5-[(1R,2R)-2-Carboxy-1-(2-chloro-benzyl)-2-hydroxy-ethylcarbamoyl]-2-(4-chloro-3-trifluoromethoxy-benzyl)-2H-pyrazole-3-carboxylic acid]",12.6 to 100
20,"O=C(O)C[C@@H](Cc1ccccc1Cl)NC(=O)c1cc(C(=O)O)n(Cc2cccc(F)c2)n1 [Example 11-6, 5-[(R)-2-Carboxy-1-(2-chloro-benzyl)-ethylcarbamoyl]-2-(3-fluoro-benzyl)-2H-pyrazole-3-carboxylic acid]",12.6 to 100
21,"O=C(N[C@H](Cc1ccccc1C(F)(F)F)[C@@H](O)C(=O)O)c1cc(C(=O)O)[nH]n1 [Example 6-2, 5-[(1R,2R)-2-Carboxy-2-hydroxy-1-(2-trifluoromethyl-benzyl)-ethylcarbamoyl]-2H-pyrazole-3-carboxylic acid]",1.26 to 10
22,"O=C(N[C@H](Cc1ccccc1Cl)[C@@H](O)C(=O)O)c1cc(C(=O)O)n(Cc2ccc(Cl)c(SC(F)(F)F)c2)n1 [Example 2-9, 5-[(1R,2R)-2-Carboxy-1-(2-chloro-benzyl)-2-hydroxy-ethylcarbamoyl]-2-(4-chloro-3-trifluoromethylsulfanyl-benzyl)-2H-pyrazole-3-carboxylic acid]",12.6 to 100
23,"COCCn1nc(C(=O)N[C@H](Cc2ccccc2)[C@@H](O)C(=O)O)cc1C(=O)O [Example 8-13, 5-((1R,2R)-1-Benzyl-2-carboxy-2-hydroxy-ethylcarbamoyl)-2-(2-methoxy-ethyl)-2H-pyrazole-3-carboxylic acid]",12.6 to 100
24,"O=C(N[C@H](Cc1ccccc1Cl)[C@@H](O)C(=O)O)c1cc(-c2ccc(F)cc2)n[nH]1 [Example 3-3, (2R,3R)-4-(2-Chloro-phenyl)-3-{[5-(4-fluoro-phenyl)-2H-pyrazole-3-carbonyl]-amino}-2-hydroxy-butyric acid]",12.6 to 100
25,"CCCCc1cc(C(=O)N[C@H](Cc2ccccc2Cl)[C@@H](O)C(=O)O)[nH]n1 [Example 3-1, (2R,3R)-3-[(5-Butyl-2H-pyrazole-3-carbonyl)-amino]-4-(2-chloro-phenyl)-2-hydroxy-butyric acid]",12.6 to 100
26,"O=C(N[C@H](Cc1ccccc1)[C@@H](O)C(=O)O)c1cc(C(=O)O)n(Cc2cccc(F)c2)n1 [Example 8-4, 5-((1R,2R)-1-Benzyl-2-carboxy-2-hydroxy-ethylcarbamoyl)-2-(3-fluoro-benzyl)-2H-pyrazole-3-carboxylic acid]",1.26 to 10
27,"O=C(N[C@H](Cc1ccccc1Cl)[C@@H](O)C(=O)O)c1cc(-c2ccccc2Cl)n(-c2ccc(Cl)cc2Cl)n1 [Example 2-64, (2R,3R)-4-(2-Chloro-phenyl)-3-{[5-(2-chloro-phenyl)-1-(2,4-dichloro-phenyl)-1H-pyrazole-3-carbonyl]-amino}-2-hydroxy-butyric acid]",12.6 to 100

# From patent publication US8993752B2, “Neprilysin inhibitors” (Theravance Biopharma R&D IP, LLC, priority 2011, dated 2015)
